Measurements published in paper PMC9849758, “Chemically diverse activity-based probes with unexpected inhibitory mechanisms targeting trypsin-like serine proteases” (Frontiers in Chemistry, 2023).
“Also recorded” adds a separate entry of the source. Where a name gives a salt, the structure may show the parent alone. Read-outs that look alike come from different tables or passages of the source.

Columns and labels:
Type in all cases: biochemical
[1] = target: T1, Cathepsin G (cathepsin G human neutrophil) (Homo sapiens, UniProt P08311); assay: IC50 determination, spectrophotometric protease assay
T1 construct: Cathepsin G (cathepsin G human neutrophil, Sigma-Aldrich); purchased Sigma-Aldrich; host or cells: human neutrophil
T1 sequence (P08311 21-255): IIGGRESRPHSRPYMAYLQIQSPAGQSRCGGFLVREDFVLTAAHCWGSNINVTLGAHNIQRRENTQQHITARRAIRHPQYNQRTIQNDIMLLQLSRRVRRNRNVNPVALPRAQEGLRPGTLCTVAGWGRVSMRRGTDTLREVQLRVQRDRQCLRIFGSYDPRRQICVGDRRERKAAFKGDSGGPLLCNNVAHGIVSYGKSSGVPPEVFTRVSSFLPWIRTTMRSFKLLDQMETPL
Description: (§1) The IC50 values were determined using a spectrophotometric assay. All the experiments were conducted in duplicate. The readout consisted of evaluating the protease-mediated release of the chromophore para-nitroaniline (pNA) or fluorophore 7-amino-4-methyl coumarin (AMC) moieties from the respective substrates. Enzymatic activity was measured for 30 min at 37°C. All compounds were initially screened at three concentrations (10, 1, and .1 μM) to estimate the range of the IC50 value. Those which were able to reduce protease activity by at least 50% at a concentration of 10 μM were submitted to an exact IC50 determination. […] A third independent experiment was performed when the standard deviation of the two independent experiments was higher than […]. IC50 values were obtained by fitting the data with the four-parameter logistics equation using GraphPad Prism 9.
(§2) The conditions for each protease are described as follows, the concentration of substrate used was at the corresponding Km.

[2] = target: T2, TLCK-treated pancreatic bovine chymotrypsin (Bos taurus, UniProt P00766); assay: as above
T2 construct: TLCK-treated pancreatic bovine chymotrypsin (Sigma-Aldrich); purchased Sigma-Aldrich; host or cells: bovine pancreas
Description: as §1, §2

[3] = target: T3, Thrombin (recombinant thrombin) (Homo sapiens, UniProt P00734); assay: as above
T3 construct: purchased R&D
Description: as §1, §2

[4] = target: T4, Trypsin-3 (recombinant trypsin-3) (Homo sapiens, UniProt P35030); assay: as above
T4 construct: purchased R&D
T4 sequence (P35030 1-304): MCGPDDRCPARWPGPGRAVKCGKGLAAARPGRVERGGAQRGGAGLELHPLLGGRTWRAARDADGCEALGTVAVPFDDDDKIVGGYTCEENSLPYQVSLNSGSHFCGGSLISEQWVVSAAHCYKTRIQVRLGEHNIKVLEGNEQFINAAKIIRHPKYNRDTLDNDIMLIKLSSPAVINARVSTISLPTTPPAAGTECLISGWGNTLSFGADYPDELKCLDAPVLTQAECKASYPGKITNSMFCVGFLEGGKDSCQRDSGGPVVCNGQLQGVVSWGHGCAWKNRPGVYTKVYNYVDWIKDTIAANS
Description: as §1, §2

[5] = target: T5, uPA (recombinant urokinase plasminogen activator) (Homo sapiens, UniProt P00749); assay: as above
T5 construct: purchased HYPHEN BioMed
Description: as §1, §2

[6] = target: T6, β-tryptase (recombinant tryptase β-2) (Homo sapiens, UniProt P20231); assay: as above
T6 construct: purchased EnzoLife Sciences
Description: as §1, §2

uPA = target: T7, uPA (Homo sapiens, UniProt P00749); assay: Kinetic progress curves (kapp, mechanism); settings: for uPA mechanism of inhibition: defined by the progress curves: slow-binding (Rev.) or irreversible (Irrev.); for uPA kapp: apparent second-order rate constant from progress curves, mean ± SD
T7 construct: purchased HYPHEN BioMed
Description: (§3) Because the compounds described in this paper were previously described as irreversible inhibitors, the IC50 value is inversely correlated with the second-order rate constant of inactivation. For a simple pseudo-first-order inactivation process, the activity after incubation with inhibitor (vi) varies with the inhibitor concentration (i), as described in the following equation: vi=v0·e^−kit where v0 is the activity in the absence of an inhibitor, k is the second-order rate constant of inactivation, and t is the time. The inactivation rate constant was determined from the time course of inhibition.
(§4) Kinetic assays were performed in the following manner. The inhibitor was mixed with the substrate, and the buffer solution with the enzyme was added at the time zero. The progress curves show the release of pNA or AMC as a function of time. Initially, no inhibitor is bound to the enzyme, and the tangent to the progress curve (dA/dt) is proportional to the free enzyme concentration. The free enzyme concentration decreases over time due to inhibitor binding kinetics, as described above. Progress curves were recorded in pseudo-first-order conditions ([I]0>>[E]0) and with less than 10% conversion of the substrate during the entire time course. In these conditions, dA/dt decreases exponentially with time. The progress curves were fitted with the integrated rate equation with GraFit7 to yield a value for kobs, a pseudo-first-order rate constant. At=Ao+vs∙t+vi−vs∙1−e^−kobs∙t/kobs where At is the absorbance at time t, A0 is the absorbance at time zero, vi is the initial rate and vs is the velocity at the steady-state.
(§5) The apparent second-order rate constant (kapp) was calculated from the slope of the linear part of the plot of kobs vs. the inhibitor concentration ([I]0). In the case of competition between the inhibitor and the substrate, kapp is smaller than the “real” second-order rate constant k discussed above because a certain fraction of the enzyme is present as an enzyme-substrate complex. kapp depends on the substrate concentration used in the experiment, as described by [Lambeir et al. (1996)].
(§6) The apparent equilibrium constants were obtained from the following equations, vi/vo=1/1+I/K1; vS/vo=1/1+I/KI* where vi is the initial rate, vs is the steady-state velocity and vo is the uninhibited initial rate.

β-tryptase = β-tryptase (Homo sapiens, UniProt P20231); assay: Kinetic progress curves (kapp, K1, KI*, mechanism); design: purchased EnzoLife Sciences; settings: for β-tryptase mechanism of inhibition: defined by the progress curves: slow-binding (Rev.) or irreversible (Irrev.); for β-tryptase kapp: apparent second-order rate constant from progress curves; for β-tryptase kapp / Ki: mean ± SD
Description: as §3, §4, §5, §6

[7] = read-out: CatG IC50, desthiobiotin probes, 15 min preincubation at 37°C, mean ± SD
[8] = read-out: ChTryp IC50, desthiobiotin probes, 15 min preincubation at 37°C, mean ± SD
[9] = read-out: Thrombin IC50, desthiobiotin probes, 15 min preincubation at 37°C, mean ± SD
[10] = read-out: Trypsin-3 IC50, desthiobiotin probes, 15 min preincubation at 37°C, mean ± SD
[11] = read-out: uPA IC50, desthiobiotin probes, 15 min preincubation at 37°C, mean ± SD
[12] = read-out: β-tryptase IC50, desthiobiotin probes, 15 min preincubation at 37°C, mean ± SD
[13] = β-tryptase K1, apparent equilibrium constant of the first step of slow-binding
[14] = β-tryptase KI*, apparent equilibrium constant of the overall process
[15] = alkyne probes, 15 min preincubation at 37°C, mean ± SD

T6 sequence (P20231 31-275): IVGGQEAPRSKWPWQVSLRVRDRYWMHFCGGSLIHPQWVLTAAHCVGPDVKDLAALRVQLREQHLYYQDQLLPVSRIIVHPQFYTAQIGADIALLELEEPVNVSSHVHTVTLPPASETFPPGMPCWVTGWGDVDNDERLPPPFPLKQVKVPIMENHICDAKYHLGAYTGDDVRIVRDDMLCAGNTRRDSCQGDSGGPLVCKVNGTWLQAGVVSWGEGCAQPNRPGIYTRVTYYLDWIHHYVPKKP
β-tryptase, sequence (P20231 31-275): as above

Structure (SMILES) | IC50 [1] [nM] | IC50 [2] [nM] | IC50 [3] [nM] | IC50 [4] [nM] | IC50 [5] [nM] | IC50 [6] [nM] | uPA mechanism of inhibition (uPA) | β-tryptase mechanism of inhibition (β-tryptase) | uPA kapp (uPA) | β-tryptase kapp (β-tryptase) | IC50 [1, 7] [nM] | IC50 [2, 8] [nM] | IC50 [3, 9] [nM] | IC50 [4, 10] [nM] | IC50 [5, 11] [nM] | IC50 [6, 12] [nM] | Ki (β-tryptase; [13]) [nM] | Ki (β-tryptase; [14]) [nM] | CatG IC50 [1, 15] | uPA IC50 [5, 15]
C#CCCCOC(=O)NC(c1ccc(NC(=N)N)cc1)P(=O)(Oc1ccc(Cl)cc1)Oc1ccc(Cl)cc1 (centres unmarked) [39b, Pent-4-yn-1-yl ((bis(4-chlorophenoxy)phosphoryl)(4-guanidinophenyl)methyl)carbamate] | 90 ± 22 | > 10000 | > 10000 | 90 ± 9 | 220 ± 60 | 70 ± 4 | Irrev. | irreversible; also recorded: Irrev |  |  |  |  |  |  |  |  |  |  |  | 
C#CCCCOC(=O)NC(c1ccc(NC(=N)N)cc1)P(=O)(Oc1ccc(NC(C)=O)cc1)Oc1ccc(NC(C)=O)cc1 (centres unmarked) [38b, Pent-4-yn-1-yl ((bis(4-acetamidophenoxy)phosphoryl)(4-guanidinophenyl)methyl) carbamate] | 130 ± 10 | > 10000 | > 10000 | 40 ± 15 | 1520 ± 400 | 120 ± 20 | Irrev. | Irrev. | 215 ± 7 M⁻¹ s⁻¹ | 20 × 10^2 ± 54 M^−1 s^−1 |  |  |  |  |  |  |  |  |  | 
C#CCCCOC(=O)NC(CCCNC(=N)N)P(=O)(Oc1ccccc1)Oc1ccccc1 (centres unmarked) [32b] | 7570 ± 580 | > 10000 | 850 ± 130 | 30 ± 7 | 4800 ± 80 | 3740 ± 530 | Irrev. | Irrev. | 41 ± 4 M⁻¹ s⁻¹ | 41 ± 5 M⁻¹ s⁻¹ |  |  |  |  |  |  |  |  |  | 
CC(=O)Nc1ccc(OP(=O)(Oc2ccc(NC(C)=O)cc2)C(NC(=O)OCCCc2cn(CCOCCOCCOCCNC(=O)CCCCC[C@H]3NC(=O)N[C@H]3C)nn2)c2ccc(NC(=N)N)cc2)cc1 (some centres unmarked) [56b] |  |  |  |  |  |  | Irrev. | Irreversible; also recorded: Irrev | 62 ± 2 M⁻¹ s⁻¹ | 321 ± 2 M⁻¹ s⁻¹ | 620 ± 9 | > 10000 | > 10000 | 220 ± 4 | 5190 ± 80 | 390 ± 100 |  |  |  | 
C[C@@H]1NC(=O)N[C@@H]1CCCCCC(=O)NCCOCCOCCOCCn1cc(CCCOC(=O)NC(c2ccc(NC(=N)N)cc2)P(=O)(Oc2ccc(Cl)cc2)Oc2ccc(Cl)cc2)nn1 (some centres unmarked) [57b] |  |  |  |  |  |  | Irrev. | Irrev. | 25 × 10^2 ± 11 M^−1 s^−1 | 65 × 10^2 ± 1,203 M^−1 s^−1 | 120 ± 40 | > 10000 | > 10000 | 180 ± 70 | 160 ± 40 | 20 ± 0.2 |  |  |  | 
C[C@@H]1NC(=O)N[C@@H]1CCCCCC(=O)NCCOCCOCCOCCn1cc(CCCOC(=O)NC(Cc2ccc(NC(=N)N)cc2)P(=O)(Oc2ccccc2)Oc2ccccc2)nn1 (stereo partly drawn) [50b, 3-(1-(18-((4R,5S)-5-methyl-2-oxoimidazolidin-4-yl)-13-oxo-3,6,9-trioxa-12-azaoctadecyl)-1H-1,2,3-triazol-4-yl)propyl (1-(diphenoxyphosphoryl)-2-(4-guanidinophenyl)ethyl)carbamate trifluoroacetate salt] | 360 ± 4 | 1640 ± 500 | 3520 ± 390 | 30 ± 10 | 20 ± 0.1 | 360 ± 70 | Irrev. | Rev. | 33000 ± 12000 M⁻¹ s⁻¹ | 32 × 10^2 ± 613 M^−1 s^−1 |  |  |  |  |  |  | 3280 ± 500 | 410 ± 30 |  | 
C#CCCCOC(=O)NC(C1CCN(C(=N)N)CC1)P(=O)(Oc1ccccc1)Oc1ccccc1 (centres unmarked) [41b] | > 10000 | > 10000 | 30 ± 1 | 40 ± 2 | > 10000 | 8370 ± 440 |  | irreversible inhibition; also recorded: Irrev |  | 27 ± 2 M⁻¹ s⁻¹ |  |  |  |  |  |  |  |  | no inhibition | no inhibition
C[C@@H]1NC(=O)N[C@@H]1CCCCCC(=O)NCCOCCOCCOCCn1cc(CCCOC(=O)NC(CCCNC(=N)N)P(=O)(Oc2ccccc2)Oc2ccccc2)nn1 (some centres unmarked) [45b] |  |  |  |  |  |  |  | Irrev. |  | 237 ± 42 M⁻¹ s⁻¹ | > 10000 | > 10000 | 610 ± 170 | 220 ± 20 | > 10000 | 800 ± 50 |  |  |  | 
C#CCCCOC(=O)NC(Cc1ccc(NC(=N)N)cc1)P(=O)(Oc1ccccc1)Oc1ccccc1 (centres unmarked) [34b] | 450 ± 20 | > 10000 | 8490 ± 2250 | 1 ± 0.3 |  | 630 ± 30 | Irrev. | Rev. | 75 × 10^2 ± 725 M^−1 s^−1 | 712 ± 41 M⁻¹ s⁻¹ |  |  |  |  |  |  | 15800 ± 5000 | 1110 ± 90 |  | 
